What was measured:
Assay in all cases: Kinase panel activity
Format in all cases: biochemical
Details in all cases: 0.1 μM, ATP Km
[1] = biological target: Lck(h) (Homo sapiens, UniProt P06239)
Procedure: (§1) The effect of NTW-3475 on kinase activity was tested for a wide range of kinases and is shown in Table 2: Summary Sheet, Activity % ATP Concentration: Km

[2] = biological target: IKKα(h) (Homo sapiens, UniProt O15111)
Procedure: as §1

[3] = biological target: T1, MSSK1(h) (Homo sapiens, UniProt Q9UPE1)
T1 construct: purchased Millipore (KinaseProfiler service)
Procedure: as §1

[4] = biological target: GRK5(h) (Homo sapiens, UniProt P34947)
GRK5(h), sequence (P34947 whole entry): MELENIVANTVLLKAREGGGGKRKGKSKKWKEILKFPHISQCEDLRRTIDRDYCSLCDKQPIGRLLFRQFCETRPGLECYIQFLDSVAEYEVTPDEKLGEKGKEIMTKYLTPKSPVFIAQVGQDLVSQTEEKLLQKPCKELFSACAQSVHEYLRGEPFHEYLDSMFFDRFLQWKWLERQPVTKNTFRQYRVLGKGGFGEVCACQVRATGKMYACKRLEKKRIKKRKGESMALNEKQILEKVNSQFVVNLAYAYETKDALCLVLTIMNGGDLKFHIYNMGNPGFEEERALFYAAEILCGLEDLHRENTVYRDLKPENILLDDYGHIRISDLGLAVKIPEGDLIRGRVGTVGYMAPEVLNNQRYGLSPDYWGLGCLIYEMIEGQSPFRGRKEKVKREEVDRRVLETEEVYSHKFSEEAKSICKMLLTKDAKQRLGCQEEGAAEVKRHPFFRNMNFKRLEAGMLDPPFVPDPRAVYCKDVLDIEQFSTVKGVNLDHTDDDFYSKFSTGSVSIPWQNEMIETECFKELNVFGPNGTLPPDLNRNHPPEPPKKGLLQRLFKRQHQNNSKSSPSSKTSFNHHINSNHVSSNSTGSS
Procedure: as §1

[5] = biological target: T2, Snk(h) (Homo sapiens, UniProt Q9NYY3)
T2 construct: purchased Millipore (KinaseProfiler service)
Procedure: as §1

[6] = biological target: NEK3(h) (Homo sapiens, UniProt P51956)
Procedure: as §1

[7] = biological target: ULK3(h) (Homo sapiens, UniProt Q6PHR2)
Procedure: as §1

[8] = biological target: Hck(h) (Homo sapiens, UniProt P08631)
Procedure: as §1

[9] = biological target: T3, Rsk1(h) (Homo sapiens, UniProt Q15418)
T3 construct: purchased Millipore (KinaseProfiler service)
Procedure: as §1

[10] = biological target: JNK1α1(h) (Homo sapiens, UniProt P45983)
Procedure: as §1

[11] = biological target: BTK(h) (Homo sapiens, UniProt Q06187)
Procedure: as §1

[12] = biological target: mTOR(h) (Homo sapiens, UniProt P42345)
Procedure: as §1

[13] = biological target: cSRC(h) (Homo sapiens, UniProt P12931)
Procedure: as §1

[14] = biological target: T4, Met(M1268T)(h) (Homo sapiens, UniProt P08581, M1250T)
T4 construct: purchased Millipore (KinaseProfiler service)
Procedure: as §1

[15] = biological target: T5, EphA8(h) (Homo sapiens, UniProt P29322)
T5 construct: purchased Millipore (KinaseProfiler service)
Procedure: as §1

[16] = biological target: T6, SRPK1(h) (Homo sapiens, UniProt Q96SB4)
T6 construct: purchased Millipore (KinaseProfiler service)
Procedure: as §1

[17] = biological target: ALK(h) (Homo sapiens, UniProt Q9UM73)
Procedure: as §1

[18] = biological target: T7, Met(D1246H)(h) (Homo sapiens, UniProt P08581, D1228H)
T7 construct: purchased Millipore (KinaseProfiler service)
Procedure: as §1

[19] = biological target: PRAK(h) (Homo sapiens, UniProt Q8IW41)
Procedure: as §1

[20] = biological target: PAK6(h) (Homo sapiens, UniProt Q9NQU5)
PAK6(h), sequence (Q9NQU5 whole entry): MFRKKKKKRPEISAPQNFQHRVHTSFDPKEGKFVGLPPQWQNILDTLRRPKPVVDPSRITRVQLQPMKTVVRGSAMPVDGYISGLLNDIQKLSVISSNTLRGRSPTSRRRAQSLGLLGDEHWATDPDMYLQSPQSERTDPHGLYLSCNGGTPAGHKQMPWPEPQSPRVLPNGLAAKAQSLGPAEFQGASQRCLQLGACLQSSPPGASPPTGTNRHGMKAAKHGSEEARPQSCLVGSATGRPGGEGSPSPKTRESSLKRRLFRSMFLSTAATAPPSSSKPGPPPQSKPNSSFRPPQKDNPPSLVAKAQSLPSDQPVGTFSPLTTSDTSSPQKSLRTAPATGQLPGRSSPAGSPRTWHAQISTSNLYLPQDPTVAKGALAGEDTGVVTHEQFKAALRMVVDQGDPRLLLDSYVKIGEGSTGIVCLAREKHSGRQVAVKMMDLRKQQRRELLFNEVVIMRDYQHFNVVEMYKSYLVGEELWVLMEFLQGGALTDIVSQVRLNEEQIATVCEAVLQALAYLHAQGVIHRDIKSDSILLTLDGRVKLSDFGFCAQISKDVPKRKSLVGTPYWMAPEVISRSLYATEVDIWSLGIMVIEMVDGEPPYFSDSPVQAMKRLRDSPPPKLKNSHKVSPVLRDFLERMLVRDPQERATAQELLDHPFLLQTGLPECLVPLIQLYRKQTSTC
Procedure: as §1

[21] = biological target: Aurora-B(h) (Homo sapiens, UniProt Q96GD4)
Procedure: as §1

[22] = biological target: T8, TAO3(h) (Homo sapiens, UniProt Q9H2K8)
T8 construct: purchased Millipore (KinaseProfiler service)
Procedure: as §1

[23] = biological target: PDGFRα(h) (Homo sapiens, UniProt P16234)
Procedure: as §1

[24] = biological target: CLK2(h) (Homo sapiens, UniProt P49760)
Procedure: as §1

[25] = biological target: PKCη(h) (Homo sapiens, UniProt P24723)
Procedure: as §1

[26] = biological target: Fms(h) (Homo sapiens, UniProt P07333)
Fms(h), sequence (P07333 20-972): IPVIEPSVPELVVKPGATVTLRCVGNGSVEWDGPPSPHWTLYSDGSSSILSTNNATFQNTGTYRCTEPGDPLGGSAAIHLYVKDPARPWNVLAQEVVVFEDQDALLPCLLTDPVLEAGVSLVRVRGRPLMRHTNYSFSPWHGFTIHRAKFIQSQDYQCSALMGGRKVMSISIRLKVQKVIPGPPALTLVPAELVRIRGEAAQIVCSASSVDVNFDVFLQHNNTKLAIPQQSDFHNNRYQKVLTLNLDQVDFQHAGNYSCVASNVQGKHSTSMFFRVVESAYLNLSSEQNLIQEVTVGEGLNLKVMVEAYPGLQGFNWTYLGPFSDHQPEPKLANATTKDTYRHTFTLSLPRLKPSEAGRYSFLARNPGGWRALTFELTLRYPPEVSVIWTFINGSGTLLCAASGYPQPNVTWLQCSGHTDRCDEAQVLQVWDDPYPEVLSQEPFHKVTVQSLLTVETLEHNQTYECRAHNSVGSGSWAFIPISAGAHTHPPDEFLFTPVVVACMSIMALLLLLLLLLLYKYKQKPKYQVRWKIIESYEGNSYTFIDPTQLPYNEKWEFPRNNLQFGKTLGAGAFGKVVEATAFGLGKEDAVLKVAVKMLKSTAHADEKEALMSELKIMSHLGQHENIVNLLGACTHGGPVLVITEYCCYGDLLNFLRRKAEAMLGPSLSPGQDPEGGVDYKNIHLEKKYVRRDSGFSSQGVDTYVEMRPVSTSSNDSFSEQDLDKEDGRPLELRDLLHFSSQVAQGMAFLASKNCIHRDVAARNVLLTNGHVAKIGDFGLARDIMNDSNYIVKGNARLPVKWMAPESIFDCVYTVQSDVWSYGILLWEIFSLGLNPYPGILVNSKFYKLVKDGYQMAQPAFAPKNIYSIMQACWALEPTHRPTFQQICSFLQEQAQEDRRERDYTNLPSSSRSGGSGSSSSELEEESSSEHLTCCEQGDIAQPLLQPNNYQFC
Procedure: as §1

[27] = biological target: Ab1(T3151)(h) (Homo sapiens, UniProt P00519, T315I)
Procedure: as §1

[28] = biological target: T9, EphA2(h) (Homo sapiens, UniProt P29317)
T9 construct: purchased Millipore (KinaseProfiler service)
Procedure: as §1

[29] = biological target: T10, PrKX(h) (Homo sapiens, UniProt P51817)
T10 construct: purchased Millipore (KinaseProfiler service)
Procedure: as §1

[30] = biological target: T11, SGK(h) (Homo sapiens, UniProt O00141)
T11 construct: purchased Millipore (KinaseProfiler service)
T11 sequence (O00141 whole entry): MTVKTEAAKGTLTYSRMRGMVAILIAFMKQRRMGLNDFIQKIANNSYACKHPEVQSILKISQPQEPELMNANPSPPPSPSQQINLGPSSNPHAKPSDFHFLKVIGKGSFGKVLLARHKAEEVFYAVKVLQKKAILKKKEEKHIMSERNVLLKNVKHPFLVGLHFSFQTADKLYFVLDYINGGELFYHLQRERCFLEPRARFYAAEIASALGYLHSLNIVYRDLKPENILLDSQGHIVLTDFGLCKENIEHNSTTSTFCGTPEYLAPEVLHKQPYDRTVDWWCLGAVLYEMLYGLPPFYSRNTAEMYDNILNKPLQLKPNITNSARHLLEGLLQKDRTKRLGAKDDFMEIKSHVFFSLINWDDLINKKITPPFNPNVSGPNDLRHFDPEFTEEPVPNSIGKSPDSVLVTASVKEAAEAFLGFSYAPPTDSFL
Procedure: as §1

[31] = biological target: PKBγ(h) (Homo sapiens, UniProt Q9Y243)
Procedure: as §1

[32] = biological target: DAPK1(h) (Homo sapiens, UniProt P53355)
DAPK1(h), sequence (P53355 whole entry): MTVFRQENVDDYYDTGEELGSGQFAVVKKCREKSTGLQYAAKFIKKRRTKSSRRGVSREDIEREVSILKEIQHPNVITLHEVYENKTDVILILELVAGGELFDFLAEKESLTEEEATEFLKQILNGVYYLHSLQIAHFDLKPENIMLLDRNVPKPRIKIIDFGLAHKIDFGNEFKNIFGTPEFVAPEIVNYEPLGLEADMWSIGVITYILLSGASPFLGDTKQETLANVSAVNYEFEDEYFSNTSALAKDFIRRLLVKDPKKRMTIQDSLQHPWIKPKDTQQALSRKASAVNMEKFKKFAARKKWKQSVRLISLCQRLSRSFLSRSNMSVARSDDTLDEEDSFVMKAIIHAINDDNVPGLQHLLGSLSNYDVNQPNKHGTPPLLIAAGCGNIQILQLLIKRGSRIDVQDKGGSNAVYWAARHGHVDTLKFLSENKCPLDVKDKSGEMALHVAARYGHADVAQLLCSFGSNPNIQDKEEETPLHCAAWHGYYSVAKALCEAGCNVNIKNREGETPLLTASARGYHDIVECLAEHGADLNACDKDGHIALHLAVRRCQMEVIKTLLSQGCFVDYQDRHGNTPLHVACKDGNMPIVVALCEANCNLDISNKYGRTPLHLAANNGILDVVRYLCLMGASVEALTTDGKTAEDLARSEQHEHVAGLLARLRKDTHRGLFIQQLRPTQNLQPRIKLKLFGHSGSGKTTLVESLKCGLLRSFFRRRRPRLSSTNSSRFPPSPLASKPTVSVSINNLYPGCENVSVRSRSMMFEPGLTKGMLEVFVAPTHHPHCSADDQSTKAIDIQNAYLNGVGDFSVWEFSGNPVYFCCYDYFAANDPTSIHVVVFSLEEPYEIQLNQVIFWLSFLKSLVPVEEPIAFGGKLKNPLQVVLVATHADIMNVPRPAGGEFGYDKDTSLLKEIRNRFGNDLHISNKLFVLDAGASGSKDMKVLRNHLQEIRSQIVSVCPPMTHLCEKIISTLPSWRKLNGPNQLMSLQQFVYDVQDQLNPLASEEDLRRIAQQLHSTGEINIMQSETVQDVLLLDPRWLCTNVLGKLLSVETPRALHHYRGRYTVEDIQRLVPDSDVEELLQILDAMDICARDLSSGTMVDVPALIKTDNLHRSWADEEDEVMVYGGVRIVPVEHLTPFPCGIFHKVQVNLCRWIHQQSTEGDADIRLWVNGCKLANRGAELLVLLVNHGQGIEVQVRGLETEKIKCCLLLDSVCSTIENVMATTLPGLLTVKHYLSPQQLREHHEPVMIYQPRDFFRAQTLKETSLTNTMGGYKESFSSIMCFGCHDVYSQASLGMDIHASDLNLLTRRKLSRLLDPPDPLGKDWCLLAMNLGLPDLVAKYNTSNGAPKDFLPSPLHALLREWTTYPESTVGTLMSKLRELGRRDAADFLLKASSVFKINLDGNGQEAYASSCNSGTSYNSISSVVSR
Procedure: as §1

[33] = biological target: T12, EphB3(h) (Homo sapiens, UniProt P54753)
T12 construct: purchased Millipore (KinaseProfiler service)
Procedure: as §1

[34] = biological target: T13, Rsk1(r) (Rattus norvegicus, UniProt Q63531)
T13 construct: purchased Millipore (KinaseProfiler service)
Procedure: as §1

[35] = biological target: T14, Pyk2(h) (Homo sapiens, UniProt Q14289)
T14 construct: purchased Millipore (KinaseProfiler service)
T14 sequence (Q14289 whole entry): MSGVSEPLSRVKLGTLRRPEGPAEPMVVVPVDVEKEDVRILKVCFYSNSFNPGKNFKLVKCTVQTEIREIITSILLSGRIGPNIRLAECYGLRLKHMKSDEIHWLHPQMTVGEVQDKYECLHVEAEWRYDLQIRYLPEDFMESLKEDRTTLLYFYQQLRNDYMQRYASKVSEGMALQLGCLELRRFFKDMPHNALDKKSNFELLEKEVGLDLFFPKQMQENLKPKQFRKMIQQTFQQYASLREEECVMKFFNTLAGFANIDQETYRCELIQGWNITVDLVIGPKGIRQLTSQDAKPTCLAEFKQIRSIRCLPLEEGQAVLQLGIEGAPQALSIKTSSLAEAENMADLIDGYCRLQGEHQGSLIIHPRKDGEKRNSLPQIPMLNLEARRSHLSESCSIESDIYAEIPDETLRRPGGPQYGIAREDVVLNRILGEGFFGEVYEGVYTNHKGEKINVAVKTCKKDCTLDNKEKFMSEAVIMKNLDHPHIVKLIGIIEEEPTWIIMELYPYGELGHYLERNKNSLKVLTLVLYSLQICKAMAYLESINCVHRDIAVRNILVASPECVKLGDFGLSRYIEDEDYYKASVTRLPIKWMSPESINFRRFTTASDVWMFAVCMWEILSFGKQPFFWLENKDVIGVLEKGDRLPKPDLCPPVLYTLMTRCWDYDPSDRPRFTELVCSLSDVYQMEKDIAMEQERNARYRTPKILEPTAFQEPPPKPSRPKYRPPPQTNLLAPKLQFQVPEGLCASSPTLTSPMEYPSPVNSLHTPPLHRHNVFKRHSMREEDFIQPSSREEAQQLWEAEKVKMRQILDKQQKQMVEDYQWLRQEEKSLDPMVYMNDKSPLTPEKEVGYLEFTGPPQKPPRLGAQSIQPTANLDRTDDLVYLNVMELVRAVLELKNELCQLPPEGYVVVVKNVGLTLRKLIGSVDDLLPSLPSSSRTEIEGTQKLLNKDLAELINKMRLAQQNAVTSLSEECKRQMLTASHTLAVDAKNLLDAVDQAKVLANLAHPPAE
Procedure: as §1

[36] = biological target: FGFR2(N549H)(h) (Homo sapiens, UniProt P21802, N549H)
Procedure: as §1

[37] = biological target: IRAK4(h) (Homo sapiens, UniProt Q9NWZ3)
Procedure: as §1

[38] = biological target: BrSK2(h) (Homo sapiens, UniProt Q8IWQ3)
Procedure: as §1

[39] = biological target: T15, Src(T341M)(h) (Homo sapiens, UniProt P12931, T341M)
T15 construct: purchased Millipore (KinaseProfiler service)
Procedure: as §1

[40] = biological target: FGFR4(h) (Homo sapiens, UniProt P22455)
Procedure: as §1

`Cc1cc2c(F)c(Oc3nc(Nc4cc(C5CC5)[nH]n4)cc(N4CCN(C)CC4)n3)cc(F)c2[nH]1` [NTW-3475] showed an Activity % [1] of −8%, an Activity % [2] of 102% and an Activity % [3] of 110%. It also gave an Activity % [4] of 100%, an Activity % [5] of 97% and an Activity % [6] of 82%. For the same molecule, the Activity % [7] was 11%, the Activity % [8] was 18% and the Activity % [9] was 84%. For the same molecule, the Activity % [10] was 92%, the Activity % [11] was 37% and the Activity % [12] was 115%. The Activity % [13] was 2%, the Activity % [14] was 22% and the Activity % [15] was 16%. For the same molecule, the Activity % [16] was 96%, the Activity % [17] was 17% and the Activity % [18] was 18%. It also gave an Activity % [19] of 100%, an Activity % [20] of 85% and an Activity % [21] of 1%. It also gave an Activity % [22] of 16%, an Activity % [23] of 67% and an Activity % [24] of 90%. It also gave an Activity % [25] of 101%, an Activity % [26] of 8% and an Activity % [27] of −2%. It also gave an Activity % [28] of −1%, an Activity % [29] of 68% and an Activity % [30] of 107%. It also gave an Activity % [31] of 106%, an Activity % [32] of 88% and an Activity % [33] of 99%. The Activity % [34] was 69%, the Activity % [35] was 59% and the Activity % [36] was −1%. It also gave an Activity % [37] of 67%, an Activity % [38] of 44% and an Activity % [39] of 1%. For the same molecule, the Activity % [40] was 19%.

Source: US9458137B2, “Substituted indol-5-ol derivatives and their therapeutical applications” (NantBioScience, Inc., priority 2012, dated 2016)
